# From paper PMC3262893 (Phytochemistry, 2011)
# *1 amine or outer side, *2 acyl side, *3 side chain or, on linkers, in order; H or OH if unused. Where a SMILES comes first, the peptide text is derived from it. Bridges are numbered along the chain shown (N, C = ends). [ ]: non-standard residue; d: D form. ξ: configuration not given here. X3 = CC(=O)N(C)C(Cc1ccc(O)cc1)C(=O)OC(CC(O)C(O)CC(C)C)CC(N[*:2])C(O)C(=O)[*:1]; X2 = COc1ccc(CCC(N[*:1])C(=O)[*:2])cc1; d(aIle) = CC[C@H](C)[C@@H](N)C(=O)O; hTyr = N[C@@H](CCc1ccc(O)cc1)C(=O)O; hPhe = N[C@@H](CCc1ccccc1)C(=O)O; X1 = C/C=C(/N[*:1])C(=O)[*:2]; ξhPhe = NC(CCc1ccccc1)C(=O)O; NMeA = CN[C@@H](C)C(=O)O; CO = O=C([*:1])[*:2]
# Molecular target: 20S proteasome, human (Homo sapiens, UniProt P28074)
# Experiment: 20S proteasome assay
# Assay type: biochemical
# Details: chymotrypsin-like activity; for 20S proteasome inhibitory activity: at 50 μM; for IC50: read-out: 20S proteasome inhibition IC50
SMILES,20S proteasome inhibitory activity,IC50 [µM]
"CC[C@H](C)[C@@H]1NC(=O)[C@H](NC(=O)N[C@H](Cc2ccccc2)C(=O)O)CCCCNC(=O)[C@H](Cc2ccccc2)NC(=O)[C@H](C)N(C)C(=O)[C@H](CCc2ccc(O)cc2)NC1=O [compound 2, Lyngbyaureidamide B] ({dF-CO}-[dK]I[hTyr][NMeA]F; lactam 1-C)",not active,
"C/C=C1/NC(=O)[C@H](CO)NC(=O)[C@@H]([C@@H](C)CC)NC(=O)[C@@H]2CCCN2C(=O)[C@@H]2CCCN2C(=O)CNC(=O)[C@H](CCC(N)=O)NC(=O)C(O)C(CC(CC(O)C(O)CC(C)C)OC(=O)C(Cc2ccc(O)cc2)N(C)C(C)=O)NC(=O)[C@@H]2CCCN2C(=O)C(CCc2ccc(OC)cc2)NC(=O)[C@H]([C@@H](C)O)NC1=O (stereo partly shown) [compound 3, Lyngbyazothrin C] (QGPP[d(aIle)]S[X1]T[X2]P; linker N-C via X3)",,7.1
"CC[C@H](C)[C@@H]1NC(=O)[C@H](NC(=O)N[C@H](Cc2ccccc2)C(=O)O)CCCCNC(=O)[C@H](CCc2ccccc2)NC(=O)[C@H](C)N(C)C(=O)[C@H](CCc2ccc(O)cc2)NC1=O [compound 1, Lyngbyaureidamide A] ({dF-CO}-[dK]I[hTyr][NMeA][hPhe]; lactam 1-C)",not active,
"C/C=C1/NC(=O)[C@H](CO)NC(=O)[C@@H]([C@@H](C)CC)NC(=O)[C@@H]2CCCN2C(=O)[C@@H]2CCCN2C(=O)CNC(=O)[C@H](CCC(N)=O)NC(=O)C(O)C(CC(CC(O)C(O)CC(C)C)OC(=O)C(Cc2ccc(O)cc2)N(C)C(C)=O)NC(=O)[C@@H]2CCCN2C(=O)C(CCc2ccccc2)NC(=O)[C@H]([C@@H](C)O)NC1=O (stereo partly shown) [compound 4, Lyngbyazothrin D] (QGPP[d(aIle)]S[X1]T[ξhPhe]P; linker N-C via X3)",,19.2
